This note sets out measurements from patent US8987192B2, “Potent and selective mediators of cholesterol efflux” (The Regents of the University of California, priority 2006, dated 2015).

Assay [1] concerns Apolipoprotein E deficient (ApoE −/−) mice. As to the kind of experiment: In vivo cholesterol efflux and Reverse Cholesterol Transport from injected macrophage foam-cells. Set-up: species or system mouse. The settings on record: 20 mg/kg IP. As to the method: Apolipoprotein E deficient (ApoE −/−) mice at 6 months of age were used to evaluate the ability of the polypeptide of SEQ ID NO:4 to stimulate cholesterol efflux and Reverse Cholesterol Transport (RCT) in vivo. [^3H]cholesterol-labeled macrophage foam-cells (i.e., loaded with acetylated LDL) were injected into the intraperitoneal (IP) cavity of Apo E −/− mice in the presence and absence of the polypeptide of SEQ ID NO:4 (20 mg/kg). The polypeptide stimulated cholesterol efflux in vivo, as judged by a pronounced (2-fold) increase in the levels of macrophage derived [^3H]cholesterol appearing in plasma at 8 and 24 hour post-injection, compared to saline vehicle alone (see, FIG. 20). This was accompanied by a greater than 2-fold increase in fecal sterol secretion at 8 and 24 h. In general, the effects of the peptide were relatively long-lived persisting up to 48 h.

In another assay the target is ABCA1 (Mus musculus, UniProt P41233). Briefly: Cholesterol efflux from [3H]cholesterol-labeled ABCA1-expressing J774 mouse macrophages. Set-up: to upregulate cellular ABCA1 protein; endogenous in cells; host or cells: J774 mouse macrophages. The format is cell-based.

Entries after “also recorded” stand apart in the source; their conditions may differ.

Sequence of ABCA1 (P41233 whole entry): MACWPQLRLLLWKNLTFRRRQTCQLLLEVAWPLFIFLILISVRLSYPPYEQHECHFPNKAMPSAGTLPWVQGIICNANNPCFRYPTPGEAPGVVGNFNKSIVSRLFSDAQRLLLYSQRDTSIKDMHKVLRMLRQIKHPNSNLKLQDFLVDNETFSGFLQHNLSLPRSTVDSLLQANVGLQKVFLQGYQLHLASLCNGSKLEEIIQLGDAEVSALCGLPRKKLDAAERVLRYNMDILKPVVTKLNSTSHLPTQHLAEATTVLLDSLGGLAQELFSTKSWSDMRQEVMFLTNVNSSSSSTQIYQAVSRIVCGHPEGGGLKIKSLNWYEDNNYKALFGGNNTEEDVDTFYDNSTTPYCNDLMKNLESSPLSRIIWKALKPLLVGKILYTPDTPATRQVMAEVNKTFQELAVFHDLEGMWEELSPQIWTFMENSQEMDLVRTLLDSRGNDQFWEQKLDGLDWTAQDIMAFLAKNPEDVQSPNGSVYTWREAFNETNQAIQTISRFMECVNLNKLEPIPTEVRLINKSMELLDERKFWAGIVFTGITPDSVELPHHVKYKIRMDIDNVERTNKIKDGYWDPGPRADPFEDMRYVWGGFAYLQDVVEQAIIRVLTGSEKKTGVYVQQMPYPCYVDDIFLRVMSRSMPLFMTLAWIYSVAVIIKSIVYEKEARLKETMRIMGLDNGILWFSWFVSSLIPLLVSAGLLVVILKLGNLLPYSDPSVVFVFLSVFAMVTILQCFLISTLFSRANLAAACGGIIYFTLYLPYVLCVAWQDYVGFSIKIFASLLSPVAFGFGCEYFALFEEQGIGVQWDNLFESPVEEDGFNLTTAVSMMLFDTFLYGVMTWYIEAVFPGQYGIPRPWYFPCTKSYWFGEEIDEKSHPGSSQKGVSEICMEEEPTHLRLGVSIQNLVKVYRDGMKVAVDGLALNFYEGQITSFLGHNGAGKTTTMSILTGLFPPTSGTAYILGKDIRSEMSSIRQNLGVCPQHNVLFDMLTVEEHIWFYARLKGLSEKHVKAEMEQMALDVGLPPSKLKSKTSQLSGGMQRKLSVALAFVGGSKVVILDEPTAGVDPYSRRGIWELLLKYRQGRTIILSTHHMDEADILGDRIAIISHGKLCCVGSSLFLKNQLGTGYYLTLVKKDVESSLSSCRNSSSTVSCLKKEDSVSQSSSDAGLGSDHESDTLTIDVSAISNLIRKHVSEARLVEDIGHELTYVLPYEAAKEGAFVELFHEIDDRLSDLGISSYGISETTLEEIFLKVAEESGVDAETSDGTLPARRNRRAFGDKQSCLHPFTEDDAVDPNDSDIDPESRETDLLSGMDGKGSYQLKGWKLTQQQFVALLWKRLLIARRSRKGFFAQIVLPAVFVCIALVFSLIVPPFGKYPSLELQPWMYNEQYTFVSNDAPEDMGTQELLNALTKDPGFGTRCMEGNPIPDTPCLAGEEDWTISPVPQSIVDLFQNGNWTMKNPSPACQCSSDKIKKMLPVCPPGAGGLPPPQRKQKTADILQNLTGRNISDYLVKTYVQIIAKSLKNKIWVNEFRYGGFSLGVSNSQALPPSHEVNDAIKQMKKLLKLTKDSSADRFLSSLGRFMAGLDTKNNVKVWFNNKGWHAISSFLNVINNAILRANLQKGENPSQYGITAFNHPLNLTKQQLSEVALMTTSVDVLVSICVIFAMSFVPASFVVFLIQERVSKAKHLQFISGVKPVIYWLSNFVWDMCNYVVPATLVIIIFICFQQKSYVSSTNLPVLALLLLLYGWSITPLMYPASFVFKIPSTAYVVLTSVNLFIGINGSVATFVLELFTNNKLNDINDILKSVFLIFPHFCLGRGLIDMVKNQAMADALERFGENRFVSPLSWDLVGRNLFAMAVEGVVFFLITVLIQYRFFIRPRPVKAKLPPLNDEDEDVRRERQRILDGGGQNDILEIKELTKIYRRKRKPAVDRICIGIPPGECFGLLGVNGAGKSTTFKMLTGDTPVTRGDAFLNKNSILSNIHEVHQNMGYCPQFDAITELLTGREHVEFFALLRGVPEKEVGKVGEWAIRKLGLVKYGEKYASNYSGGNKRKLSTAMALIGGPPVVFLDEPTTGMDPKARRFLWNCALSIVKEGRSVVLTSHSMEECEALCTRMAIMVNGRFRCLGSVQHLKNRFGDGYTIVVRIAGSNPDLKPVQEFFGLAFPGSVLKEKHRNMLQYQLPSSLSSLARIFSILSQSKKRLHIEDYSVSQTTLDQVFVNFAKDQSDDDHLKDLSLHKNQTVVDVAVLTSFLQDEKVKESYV

“EVRSKLEEWFAAFREFAEEFLARLKS (ATI-5261 amphipathic alpha-helix polypeptide core sequence selectively binds HDL, high-affinity ligand for ATP-binding cassette transporter A1 (ABCA1), ABCA1-lipid cholesterol efflux, ABCA1-stablization, anti-oxidant and anti- inflammatory activity) [SEQ ID NO:4]”: the persistence of effects entry in assay [1] is listed as “up to 48 h”. In assay [1] (8 and 24 h), the “increase in fecal sterol secretion” value is given as “greater than 2 fold”. Besides, the “increase in macrophage derived [3H]cholesterol in plasma” value in assay [1] (8 and 24 hour post-injection, vs saline) is 2 fold. For the same sequence, the “cholesterol efflux efficiency/potency on per molecule (molar) basis versus apolipoproteins” value in the assay with ABCA1 (Km in molar units) was “molar potency similar to that of apolipoproteins; also recorded: activity similar to full-length Apo A-I, Apo E, and the C-terminal (CT) domain of Apo E”. Also, the “cholesterol efflux at low mass concentrations” value in the assay with ABCA1 (increasing concentrations based on mass) is “relatively high-levels of cholesterol efflux”. Further, the “more potent than ApoA-I in stimulating cholesterol efflux” value with ABCA1 (mass basis, over working concentration range) is “at least 300%”.
